Results from patent US5741811A, “Polythiophene anti-tumor agents” (Purdue Research Foundation, priority 1996, dated 1998).
Like-named read-outs stand apart in the source and are kept apart here.

What was measured:
Test in all cases: NCI human tumor cell line panel growth inhibition
Format in all cases: cell-based
[1] = test system: LXPL-529 lung cancer cells; conditions: Homo sapiens, read-out: Log10 GI50 (converted)
[2] = test system: OVCAR-5 ovarian cancer cells; conditions: Homo sapiens, read-out: Log10 GI50 (converted)
SF-295 CNS cancer cells = conditions: read-out: Log10 GI50 (converted)
[3] = test system: RXF-631 renal cancer cells; conditions: Homo sapiens, read-out: Log10 GI50 (converted)
786-0 renal cancer cells = conditions: read-out: Log10 GI50 (converted)
UACC-257 melanoma cells = conditions: Homo sapiens, read-out: Log10 GI50 (converted)
UO-31 renal cancer cells = conditions: read-out: Log10 GI50 (converted)
[4] = test system: COLO-205 colon cancer cells; conditions: Homo sapiens; COLO-205, colon cancer; read-out: Log10 GI50 (converted)
[5] = test system: NCI-H522 lung cancer cells; conditions: read-out: Log10 GI50 (converted)
[6] = test system: CAKI-1 renal cancer cells; conditions: Homo sapiens
[7] = test system: HCT-116 colon cancer cells; conditions: Homo sapiens, read-out: Log10 GI50 (converted)
DLD-1 colon cancer cells = conditions: Homo sapiens, read-out: Log10 GI50 (converted)
HOP-18 lung cancer cells = conditions: Homo sapiens, read-out: Log10 GI50 (converted)
[8] = test system: OVCAR-3 ovarian cancer cells; conditions: Homo sapiens
[9] = test system: HCT-15 colon cancer cells; conditions: Homo sapiens, read-out: Log10 GI50 (converted)
XP-498 CNS cancer cells = conditions: read-out: Log10 GI50 (converted)
Protocol: (§1) The first screen measures the cytotoxicity against a panel of sixty different human tumor cell lines. This assay provides data regarding the general cytotoxicity of an individual compound.
(§2) The length of a bar is indicative of differential cytotoxicity against a specific type of tumor cells or tumor panels.
(§3) The antitumor cytotoxicity of the thiophene compounds tested in the first two in vitro assays was measured by a microculture assay using either 3-(4,5-dimethylthiazol-2-yl)-2,5-diphenyltetrazolium bromide (MTT) or sulforhodamine B (SRB). [M. R. Boyd in "Principles and Practices of Oncology," V. T. DeVita, Jr., S. Hellman and S. A. Rosenberg (Eds.), Vol. 3, PPO Updates, Number 10, 1989.] This assay has an advantage over in vivo assay in that results are obtained within a week as opposed to several months. The assay was carried out in 96-well microtiter plates. The MTT assay is based on the production of a dark blue formazan product by dehydrogenase in the mitochondria of live tumor cells after exposure to drug for 6 days [M. C. Alley, D. A. Scudiero, A. Monks, M. L. Hursey, M. J. Czerwinski, D. L. Fine, B. J. Abbott, J. G. Mayo, R. H. Shoemaker and M. R. Boyd, Cancer Res., 48, 589, 1988.] Thus, only live cells are stained and can be measured at 570 nm. The SRB assay is based on the binding of the anionic group to the basic amino acid residues of cellular proteins after exposure of tumor cells to drug for 2 days [P. Skehan, R. Storeng, D. Scudiero, A. Monks, J. McMahon, D. Vistica, J. T. Warren, H. Bohesch, S. Kenney and M. R. Boyd, J. Nat. Cancer Inst., 82, 1107, 1990.] Thus, the total protein (viability) can be measured at 564 nm.

[10] = test system: OVCAR-8 ovarian cancer cells; conditions: Homo sapiens, read-out: Log10 GI50 (converted)
Protocol: as §1, §2, §3

[11] = test system: SW-620 colon cancer cells; conditions: Homo sapiens, read-out: Log10 GI50 (converted)
Protocol: as §1, §2, §3

[12] = test system: NCI-H322M lung cancer cells; conditions: Homo sapiens, read-out: Log10 GI50 (converted)
U251 CNS cancer cells = conditions: Homo sapiens, U-251, read-out: Log10 GI50 (converted)
[13] = test system: KM20L2 colon cancer cells; conditions: Homo sapiens, KM-20L2, read-out: Log10 GI50 (converted)
HOP-62 lung cancer cells = conditions: Homo sapiens, read-out: Log10 GI50 (converted)
HT29 colon cancer cells = conditions: Homo sapiens, HT-29, read-out: Log10 GI50 (converted)
SNB-75 CNS cancer cells = conditions: Homo sapiens, read-out: Log10 GI50 (converted)
[14] = test system: RXF-393 renal cancer cells; conditions: Homo sapiens, read-out: Log10 GI50 (converted)
TK-10 renal cancer cells = conditions: Homo sapiens, read-out: Log10 GI50 (converted)
[15] = test system: NCI-H226 lung cancer cells; conditions: Homo sapiens, read-out: Log10 GI50 (converted)
[16] = test system: A549/ATCC lung cancer cells; conditions: Homo sapiens, read-out: Log10 GI50 (converted)
[17] = test system: NCI-H460 lung cancer cells; conditions: Homo sapiens, read-out: Log10 GI50 (converted)
MALME-3M melanoma cells = conditions: read-out: Log10 GI50 (converted)
SF-268 CNS cancer cells = conditions: read-out: Log10 GI50 (converted)
[18] = test system: IGROV-1 ovarian cancer cells; conditions: Homo sapiens, read-out: Log10 GI50 (converted)
A-498 renal cancer cells = conditions: Homo sapiens, A498, read-out: Log10 GI50 (converted)
[19] = test system: SK-OV-3 ovarian cancer cells; conditions: Homo sapiens, read-out: Log10 GI50 (converted)
UACC-62 melanoma cells = conditions: Homo sapiens, read-out: Log10 GI50 (converted)
[20] = test system: HCC-2998 colon cancer cells; conditions: Homo sapiens, read-out: Log10 GI50 (converted)
LOX IMVI melanoma cells = conditions: read-out: Log10 GI50 (converted)
ACHN renal cancer cells = conditions: read-out: Log10 GI50 (converted)
EKVX lung cancer cells = conditions: read-out: Log10 GI50 (converted)
SK-MEL-2 melanoma cells = conditions: read-out: Log10 GI50 (converted)
M-14 melanoma cells = conditions: M14, read-out: Log10 GI50 (converted)
[21] = test system: NCI-H23 lung cancer cells; conditions: read-out: Log10 GI50 (converted)
SN12C renal cancer cells = conditions: read-out: Log10 GI50 (converted)

| SMILES | GI50 [1] [µM] | GI50 [2] [µM] | GI50 (SF-295 CNS cancer cells) [µM] | GI50 [3] [µM] | GI50 (786-0 renal cancer cells) [µM] | GI50 (UACC-257 melanoma cells) [µM] | GI50 (UO-31 renal cancer cells) [µM] | GI50 [4] [µM] | GI50 [5] [µM] | GI50 (DLD-1 colon cancer cells) [µM] | GI50 (HOP-18 lung cancer cells) [µM] | GI50 [9] [µM] | GI50 [12] [µM] | GI50 (U251 CNS cancer cells) [µM] | GI50 [13] [µM] | GI50 (HOP-62 lung cancer cells) [µM] | GI50 (HT29 colon cancer cells) [µM] | GI50 (SNB-75 CNS cancer cells) [µM] | GI50 [14] [µM] | GI50 (TK-10 renal cancer cells) [µM] | also measured |
| --- | --- | --- | --- | --- | --- | --- | --- | --- | --- | --- | --- | --- | --- | --- | --- | --- | --- | --- | --- | --- | --- |
| OCc1ccc(-c2cccs2)s1 | 0.288 | 12.9 | 38 | 0.813 | 32.4 | 0.933 | 38.9 | 3.63 | 95.5 | 0.316 | 10.5 | 35.5 | 30.2 | 0.457 | 1.58 | 9.77 | 8.51 | 0.389 | 57.5 | 0.234 | GI50 ([6]; CAKI-1, read-out: Log10 GI50 (converted)): 0.224 µM; GI50 [7]: 4.57 µM; GI50 ([8]; OVCAR-3, read-out: Log10 GI50 (converted)): 2.34 µM; GI50 (XP-498 CNS cancer cells): 3.72 µM; GI50 [10]: 52.5 µM; GI50 [11]: 4.68 µM; GI50 [15]: 0.316 µM; GI50 [16]: 8.91 µM; GI50 [17]: 1.35 µM |
| CC(=O)OCc1ccc(-c2ccc(-c3cccs3)s2)s1 | < 0.01 | 26.3 | 18.2 | < 0.01 | 18.6 | 0.0933 | 18.6 | 0.437 | 13.2 | < 0.01 | 2.34 | 50.1 | 19.5 | < 0.01 | 0.132 | 24 | 30.2 | < 0.01 | 18.2 | 0.12 | GI50 (MALME-3M melanoma cells): 32.4 µM; GI50 (SF-268 CNS cancer cells): 24.5 µM; GI50 [18]: 5.01 µM; GI50 (A-498 renal cancer cells): 0.0437 µM; GI50 [19]: 91.2 µM; GI50 ([6]; CAKI-1, renal cancer, read-out: Log10 GI50 (converted)): 0.0182 µM; GI50 (UACC-62 melanoma cells): 17 µM; GI50 [20]: 24.5 µM; GI50 ([8]; OVCAR-3, ovarian cancer, read-out: Log10 GI50 (converted)): 0.0257 µM; GI50 (LOX IMVI melanoma cells): 24 µM; GI50 (ACHN renal cancer cells): 17.8 µM; GI50 (EKVX lung cancer cells): 24.5 µM; GI50 (SK-MEL-2 melanoma cells): 72.4 µM; GI50 (M-14 melanoma cells): 39.8 µM; GI50 [21]: 19.5 µM; GI50 (SN12C renal cancer cells): 28.8 µM; GI50 [15]: 0.324 µM; GI50 [16]: 6.61 µM; GI50 [17]: 1.51 µM |
